In PubChem BioAssay (NCI):
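Cells were grown in 96-well plates and exposed to each compound for 48 hours at five concentrations; endpoints were interpolated linearly between bracketing concentrations, or set to the highest concentration if not reached. TGI: total growth inhibition.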

Legend:
Assay in all cases: inhibition of tumour cell growth, NCI panel, 48 h
UACC-257 melanoma = tested on: UACC-257 melanoma
HT29 colon = tested on: HT29 colon
DMS 273 small cell lung = tested on: DMS 273 small cell lung
NCI/ADR-RES ovarian = tested on: NCI/ADR-RES ovarian
RPMI-8226 leukemia = tested on: RPMI-8226 leukemia
U251 CNS = tested on: U251 CNS
SN12C renal = tested on: SN12C renal
OVCAR-5 ovarian = tested on: OVCAR-5 ovarian
MDA-MB-435 = tested on: MDA-MB-435
COLO 205 colon = tested on: COLO 205 colon
BT-549 breast = tested on: BT-549 breast
DU-145 prostate = tested on: DU-145 prostate
OVCAR-4 ovarian = tested on: OVCAR-4 ovarian
NCI-H460 lung = tested on: NCI-H460 lung
CAKI-1 renal = tested on: CAKI-1 renal
IGROV1 ovarian = tested on: IGROV1 ovarian
HL-60(TB) leukemia = tested on: HL-60(TB) leukemia
HOP-92 NSCLC = tested on: HOP-92 NSCLC
DLD-1 colon = tested on: DLD-1 colon
LXFL 529 NSCLC = tested on: LXFL 529 NSCLC
HCC-2998 colon = tested on: HCC-2998 colon
DMS 114 small cell lung = tested on: DMS 114 small cell lung
CCRF-CEM leukemia = tested on: CCRF-CEM leukemia
SNB-19 CNS = tested on: SNB-19 CNS
OVCAR-8 ovarian = tested on: OVCAR-8 ovarian
SNB-75 CNS = tested on: SNB-75 CNS
KM20L2 colon = tested on: KM20L2 colon
SK-MEL-28 melanoma = tested on: SK-MEL-28 melanoma
SK-MEL-5 melanoma = tested on: SK-MEL-5 melanoma
LOX IMVI melanoma = tested on: LOX IMVI melanoma
K-562 leukemia = tested on: K-562 leukemia
SF-539 CNS = tested on: SF-539 CNS
RXF 393 renal = tested on: RXF 393 renal
PC-3 prostate = tested on: PC-3 prostate
NCI-H522 lung = tested on: NCI-H522 lung
MDA-N = tested on: MDA-N
TK-10 renal = tested on: TK-10 renal
RXF-631 renal = tested on: RXF-631 renal
MALME-3M melanoma = tested on: MALME-3M melanoma
SK-OV-3 ovarian = tested on: SK-OV-3 ovarian
M14 melanoma = tested on: M14 melanoma
KM12 colon = tested on: KM12 colon
M19-MEL melanoma = tested on: M19-MEL melanoma
ACHN renal = tested on: ACHN renal
SF-295 CNS = tested on: SF-295 CNS
HOP-18 NSCLC = tested on: HOP-18 NSCLC
SF-268 CNS = tested on: SF-268 CNS
NCI-H226 lung = tested on: NCI-H226 lung
EKVX NSCLC = tested on: EKVX NSCLC
UO-31 renal = tested on: UO-31 renal
HCT-15 colon = tested on: HCT-15 colon
A498 renal = tested on: A498 renal
SK-MEL-2 melanoma = tested on: SK-MEL-2 melanoma
UACC-62 melanoma = tested on: UACC-62 melanoma
HOP-62 NSCLC = tested on: HOP-62 NSCLC
NCI-H23 lung = tested on: NCI-H23 lung
MDA-MB-231 breast = tested on: MDA-MB-231 breast
SW-620 colon = tested on: SW-620 colon
OVCAR-3 ovarian = tested on: OVCAR-3 ovarian
HCT-116 colon = tested on: HCT-116 colon
A549 NSCLC = tested on: A549 NSCLC
SNB-78 CNS = tested on: SNB-78 CNS
MOLT-4 leukemia = tested on: MOLT-4 leukemia
786-0 renal = tested on: 786-0 renal
SR leukemia = tested on: SR leukemia

## CC(=O)O[C@H]1CCC2[C@@H]3CC[C@]4(C)CC(=O)C=C[C@]4(C)C3CC[C@@]21C (some centres not stated)
UACC-257 melanoma
  TGI: 43.9 µM
HT29 colon
  TGI: 32.8 µM
DMS 273 small cell lung
  TGI: 31.7 µM
NCI/ADR-RES ovarian
  TGI: 40.5 µM
RPMI-8226 leukemia
  TGI: 61.5 µM
U251 CNS
  TGI: 33.1 µM
SN12C renal
  TGI: 55.9 µM
OVCAR-5 ovarian
  TGI: > 100 µM
MDA-MB-435
  TGI: 94.7 µM
COLO 205 colon
  TGI: 31.3 µM
BT-549 breast
  TGI: 32.1 µM
DU-145 prostate
  TGI: > 100 µM
OVCAR-4 ovarian
  TGI: 31.8 µM
NCI-H460 lung
  TGI: 32 µM
CAKI-1 renal
  TGI: > 100 µM
IGROV1 ovarian
  TGI: 58.3 µM
HL-60(TB) leukemia
  TGI: 66.7 µM
HOP-92 NSCLC
  TGI: > 100 µM
DLD-1 colon
  TGI: 56.9 µM
LXFL 529 NSCLC
  TGI: 28 µM
HCC-2998 colon
  TGI: > 88.5 µM
DMS 114 small cell lung
  TGI: 24.2 µM
CCRF-CEM leukemia
  TGI: 57.9 µM
SNB-19 CNS
  TGI: > 100 µM
OVCAR-8 ovarian
  TGI: 34.2 µM
SNB-75 CNS
  TGI: > 93.1 µM
KM20L2 colon
  TGI: 43.5 µM
SK-MEL-28 melanoma
  TGI: 33.9 µM
SK-MEL-5 melanoma
  TGI: 28.3 µM
LOX IMVI melanoma
  TGI: 30.9 µM
K-562 leukemia
  TGI: > 100 µM
SF-539 CNS
  TGI: 31.8 µM
RXF 393 renal
  TGI: 67.7 µM
PC-3 prostate
  TGI: 77.1 µM
NCI-H522 lung
  TGI: 76.9 µM
MDA-N
  TGI: 74.7 µM
TK-10 renal
  TGI: > 100 µM
RXF-631 renal
  TGI: > 100 µM
MALME-3M melanoma
  TGI: 34.3 µM
SK-OV-3 ovarian
  TGI: > 100 µM
M14 melanoma
  TGI: 34.1 µM
KM12 colon
  TGI: 44.3 µM
M19-MEL melanoma
  TGI: 34.7 µM
ACHN renal
  TGI: > 100 µM
SF-295 CNS
  TGI: > 100 µM
HOP-18 NSCLC
  TGI: > 53.7 µM
SF-268 CNS
  TGI: 43.8 µM
NCI-H226 lung
  TGI: > 77.7 µM
EKVX NSCLC
  TGI: > 90.5 µM
UO-31 renal
  TGI: > 100 µM
HCT-15 colon
  TGI: 38.7 µM
A498 renal
  TGI: > 100 µM
SK-MEL-2 melanoma
  TGI: 38.7 µM
UACC-62 melanoma
  TGI: 30.4 µM
HOP-62 NSCLC
  TGI: 97.9 µM
NCI-H23 lung
  TGI: 53.8 µM
MDA-MB-231 breast
  TGI: 77.9 µM
SW-620 colon
  TGI: 33.8 µM
OVCAR-3 ovarian
  TGI: 31.6 µM
HCT-116 colon
  TGI: 32.1 µM
A549 NSCLC
  TGI: 37.9 µM
SNB-78 CNS
  TGI: 22.3 µM
MOLT-4 leukemia
  TGI: 47.9 µM
786-0 renal
  TGI: > 78.2 µM

## O=C(/C=C/c1ccc(Cl)c(Cl)c1)c1ccc2ccccc2c1
UACC-257 melanoma
  TGI: > 100 µM
HT29 colon
  TGI: > 100 µM
DMS 273 small cell lung
  TGI: > 100 µM
RPMI-8226 leukemia
  TGI: > 100 µM
U251 CNS
  TGI: > 100 µM
SN12C renal
  TGI: 71.6 µM
OVCAR-5 ovarian
  TGI: > 100 µM
SR leukemia
  TGI: > 100 µM
COLO 205 colon
  TGI: 28.7 µM
OVCAR-4 ovarian
  TGI: > 100 µM
NCI-H460 lung
  TGI: > 100 µM
CAKI-1 renal
  TGI: > 100 µM
IGROV1 ovarian
  TGI: > 100 µM
HL-60(TB) leukemia
  TGI: > 100 µM
HOP-92 NSCLC
  TGI: > 100 µM
DLD-1 colon
  TGI: > 100 µM
LXFL 529 NSCLC
  TGI: > 100 µM
HCC-2998 colon
  TGI: > 100 µM
DMS 114 small cell lung
  TGI: > 100 µM
CCRF-CEM leukemia
  TGI: > 100 µM
SNB-19 CNS
  TGI: > 100 µM
OVCAR-8 ovarian
  TGI: > 100 µM
SNB-75 CNS
  TGI: > 100 µM
KM20L2 colon
  TGI: > 100 µM
SK-MEL-28 melanoma
  TGI: > 100 µM
SK-MEL-5 melanoma
  TGI: > 100 µM
LOX IMVI melanoma
  TGI: > 100 µM
K-562 leukemia
  TGI: > 100 µM
SF-539 CNS
  TGI: > 100 µM
RXF 393 renal
  TGI: > 100 µM
NCI-H522 lung
  TGI: > 100 µM
TK-10 renal
  TGI: > 100 µM
RXF-631 renal
  TGI: > 100 µM
MALME-3M melanoma
  TGI: > 100 µM
SK-OV-3 ovarian
  TGI: > 100 µM
M14 melanoma
  TGI: > 100 µM
KM12 colon
  TGI: > 100 µM
M19-MEL melanoma
  TGI: > 100 µM
ACHN renal
  TGI: > 100 µM
SF-295 CNS
  TGI: > 100 µM
HOP-18 NSCLC
  TGI: > 100 µM
SF-268 CNS
  TGI: > 100 µM
NCI-H226 lung
  TGI: > 100 µM
EKVX NSCLC
  TGI: > 100 µM
UO-31 renal
  TGI: > 100 µM
HCT-15 colon
  TGI: > 100 µM
A498 renal
  TGI: > 100 µM
SK-MEL-2 melanoma
  TGI: > 100 µM
UACC-62 melanoma
  TGI: > 100 µM
HOP-62 NSCLC
  TGI: > 100 µM
NCI-H23 lung
  TGI: > 100 µM
SW-620 colon
  TGI: > 100 µM
OVCAR-3 ovarian
  TGI: > 100 µM
HCT-116 colon
  TGI: > 100 µM
A549 NSCLC
  TGI: > 100 µM
SNB-78 CNS
  TGI: > 100 µM
MOLT-4 leukemia
  TGI: > 100 µM
786-0 renal
  TGI: > 100 µM
